Assay results from the supplement of paper PMC10307832.

Columns and labels:
Test in all cases: relative viability (nuclei count vs DMSO), 5 days (fraction); higher = more cells survive
[1] = compound: O[C@@H](COc1cccc2ncccc12)CN1CCN([C@@H]2c3ccccc3[C@@H]3[C@H](c4ccccc42)C3(F)F)CC1 [Zosuquidar] + Cc1nc(Nc2ncc(C(=O)Nc3c(C)cccc3Cl)s2)cc(N2CCN(CCO)CC2)n1 [Dasatinib] (partner 0.075 µM)
In short: (§1)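 One day after seeding in 1536-well plates, lung cancer cell lines were dosed by pin tool. Dosing was either single-drug or a fixed anchor-drug dose plus five library-drug doses (not always all listed) in √10 steps. After 5 days, nuclei were stained in one fix-and-stain step and counted on 4× images, and relative viability is the nuclei count of treated wells over that of vehicle wells, given as the median of duplicate plates.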

[2] = compound: C1=CC(=CC=C1NC(=S)NNC2=C(C=C(C=C2[N+](=O)[O-])C(F)(F)F)[N+](=O)[O-])F [Kobe2602] + CS(=O)(=O)CCNCc1ccc(-c2ccc3ncnc(Nc4ccc(OCc5cccc(F)c5)c(Cl)c4)c3c2)o1 [Lapatinib] (partner 2 µM)
In short: as §1

[3] = compound: COc1cc2nccc(Oc3ccc(NC(=O)C4(C(=O)Nc5ccc(F)cc5)CC4)cc3)c2cc1OC [Cabozantinib] + O=C(c1cc(Cc2n[nH]c(=O)c3ccccc23)ccc1F)N1CCN(C(=O)C2CC2)CC1 [Olaparib] (partner 8 µM)
In short: as §1

[4] = compound: O[C@@H](COc1cccc2ncccc12)CN1CCN([C@@H]2c3ccccc3[C@@H]3[C@H](c4ccccc42)C3(F)F)CC1 [Zosuquidar] + CCNC(=O)c1noc(-c2cc(C(C)C)c(O)cc2O)c1-c1ccc(CN2CCOCC2)cc1 [Luminespib] (partner 0.01 µM)
In short: as §1

UMC-11
relative viability ([1]; first compound 0.01 µM): 0.428 | relative viability ([1]; first compound 0.03162 µM): 0.535 | relative viability ([1]; first compound 0.1 µM): 0.455 | relative viability ([1]; first compound 0.3162 µM): 0.486 | relative viability ([1]; first compound 1 µM): 0.518 | relative viability ([2]; first compound 0.2 µM): 0.696 | relative viability ([2]; first compound 0.6325 µM): 1 | relative viability ([2]; first compound 2 µM): 0.958 | relative viability ([2]; first compound 6.325 µM): 1.07 | relative viability ([2]; first compound 20 µM): 1.12 | relative viability ([3]; first compound 0.02 µM): 0.399 | relative viability ([3]; first compound 0.06325 µM): 0.304 | relative viability ([3]; first compound 0.2 µM): 0.502 | relative viability ([3]; first compound 0.6325 µM): 0.312 | relative viability ([3]; first compound 2 µM): 0.391 | relative viability ([4]; first compound 0.01 µM): 0.97 | relative viability ([4]; first compound 0.03162 µM): 0.943 | relative viability ([4]; first compound 0.1 µM): 1.08 | relative viability ([4]; first compound 0.3162 µM): 1.1 | relative viability ([4]; first compound 1 µM): 1.18
